Experimental data published in ChEMBL document CHEMBL3390836, “Mannich- and LedererManasse-based analogues of the natural product S-(+)-curcuphenol as cancer proliferation and migration inhibitors” (Medchemcomm, 2012).
pIC50: −log10 of the molar value.

Legend:
SK-MEL-28 = assay: Cytotoxicity against human SK-MEL-28 cells assessed as cell growth at 10 uM after 48 hrs by SRB assay relative to control; format: functional; settings: SK-MEL-28, 48 h, read-out: Activity
LOX IMVI = assay: Cytotoxicity against human LOXIMVI cells assessed as cell growth at 10 uM after 48 hrs by SRB assay relative to control; format: functional; settings: read-out: Activity
CCRF-CEM = assay: Cytotoxicity against human CCRF-CEM cells assessed as cell growth at 10 uM after 48 hrs by SRB assay relative to control; format: functional; settings: read-out: Activity
MCF7 [1] = assay: Growth inhibition of human MCF7 cells after 72 hrs by MTT assay; format: functional, cell-based; settings: MCF7, 72 h
SF-539 = assay: Cytotoxicity against human SF539 cells assessed as cell growth at 10 uM after 48 hrs by SRB assay relative to control; format: functional; settings: SF-539, 48 h, read-out: Activity
[2] = Cytotoxicity against human EKVX cells assessed as cell growth at 10 uM after 48 hrs by SRB assay relative to control; format: functional; settings: read-out: Activity
NCI-H460 = assay: Cytotoxicity against human NCI-H460 cells assessed as cell growth at 10 uM after 48 hrs by SRB assay relative to control; format: functional; settings: NCI-H460, 48 h, read-out: Activity
K562 = assay: Cytotoxicity against human K562 cells assessed as cell growth at 10 uM after 48 hrs by SRB assay relative to control; format: functional; settings: K562, 48 h, read-out: Activity
RPMI-8226 = assay: Cytotoxicity against human RPMI8226 cells assessed as cell growth at 10 uM after 48 hrs by SRB assay relative to control; format: functional; settings: RPMI-8226, 48 h, read-out: Activity
IGROV-1 = assay: Cytotoxicity against human IGROV1 cells assessed as cell growth at 10 uM after 48 hrs by SRB assay relative to control; format: functional; settings: IGROV-1, 48 h, read-out: Activity
MDA-MB-231 [3] = assay: Antimigratory activity against human MDA-MB-231 cells after 24 hrs by wound-healing assay; format: functional, cell-based; settings: MDA-MB-231, 24 h
[4] = Cytotoxicity against human SKOV3 cells assessed as cell growth at 10 uM after 48 hrs by SRB assay relative to control; format: functional; settings: SK-OV-3, 48 h, read-out: Activity
MDA-MB-231 [5] = assay: Growth inhibition of human MDA-MB-231 cells after 72 hrs by MTT assay; format: functional, cell-based; settings: MDA-MB-231, 72 h
MDA-MB-468 = assay: Cytotoxicity against human MDA-MB-468 cells assessed as cell growth at 10 uM after 48 hrs by SRB assay relative to control; format: functional; settings: MDA-MB-468, 48 h, read-out: Activity
786-0 = assay: Cytotoxicity against human 786-0 cells assessed as cell growth at 10 uM after 48 hrs by SRB assay relative to control; format: functional; settings: 786-0, 48 h, read-out: Activity
[6] = Cytotoxicity against human OVCAR5 cells assessed as cell growth at 10 uM after 48 hrs by SRB assay relative to control; format: functional; settings: OVCAR-5, 48 h, read-out: Activity
MDA-MB-231 [7] = assay: Cytotoxicity against human MDA-MB-231 cells assessed as growth inhibition after 24 hrs by MTT assay; format: cell-based; settings: MDA-MB-231, 24 h
[8] = Cytotoxicity against human PC3 cells assessed as cell growth at 10 uM after 48 hrs by SRB assay relative to control; format: functional; settings: PC-3, 48 h, read-out: Activity
SW-620 = assay: Cytotoxicity against human SW620 cells assessed as cell growth at 10 uM after 48 hrs by SRB assay relative to control; format: functional; settings: SW-620, 48 h, read-out: Activity
A498 = assay: Cytotoxicity against human A498 cells assessed as cell growth at 10 uM after 48 hrs by SRB assay relative to control; format: functional; settings: A498, 48 h, read-out: Activity
SNB-75 = assay: Cytotoxicity against human SNB75 cells assessed as cell growth at 10 uM after 48 hrs by SRB assay relative to control; format: functional; settings: SNB-75, 48 h, read-out: Activity
MCF7 [9] = assay: Cytotoxicity against human MCF7 cells assessed as cell growth at 10 uM after 48 hrs by SRB assay relative to control; format: functional; settings: MCF7, 48 h, read-out: Activity
ACHN = assay: Cytotoxicity against human ACHN cells assessed as cell growth at 10 uM after 48 hrs by SRB assay relative to control; format: functional; settings: read-out: Activity
SNB-19 = assay: Cytotoxicity against human SNB19 cells assessed as cell growth at 10 uM after 48 hrs by SRB assay relative to control; format: functional; settings: SNB-19, 48 h, read-out: Activity
SK-MEL-5 = assay: Cytotoxicity against human SK-MEL-5 cells assessed as cell growth at 10 uM after 48 hrs by SRB assay relative to control; format: functional; settings: SK-MEL-5, 48 h, read-out: Activity
[10] = Cytotoxicity against human UACC62 cells assessed as cell growth at 10 uM after 48 hrs by SRB assay relative to control; format: functional; settings: UACC-62, 48 h, read-out: Activity
[11] = Cytotoxicity against human UO31 cells assessed as cell growth at 10 uM after 48 hrs by SRB assay relative to control; format: functional; settings: UO-31, 48 h, read-out: Activity
[12] = Cytotoxicity against human OVCAR8 cells assessed as cell growth at 10 uM after 48 hrs by SRB assay relative to control; format: functional; settings: OVCAR-8, 48 h, read-out: Activity
SF-295 = assay: Cytotoxicity against human SF295 cells assessed as cell growth at 10 uM after 48 hrs by SRB assay relative to control; format: functional; settings: SF-295, 48 h, read-out: Activity
KM12 = assay: Cytotoxicity against human KM12 cells assessed as cell growth at 10 uM after 48 hrs by SRB assay relative to control; format: functional; settings: KM12, 48 h, read-out: Activity
[13] = Cytotoxicity against human UACC257 cells assessed as cell growth at 10 uM after 48 hrs by SRB assay relative to control; format: functional; settings: UACC-257, 48 h, read-out: Activity
HL-60(TB) = assay: Cytotoxicity against human HL-60(TB) cells assessed as cell growth at 10 uM after 48 hrs by SRB assay relative to control; format: functional; settings: HL-60, 48 h, read-out: Activity
A549 = assay: Cytotoxicity against human A549 cells assessed as cell growth at 10 uM after 48 hrs by SRB assay relative to control; format: functional; settings: A549, 48 h, read-out: Activity
CAKI-1 = assay: Cytotoxicity against human Caki1 cells assessed as cell growth at 10 uM after 48 hrs by SRB assay relative to control; format: functional; settings: CAKI-1, 48 h, read-out: Activity
[14] = Cytotoxicity against human HCT116 cells assessed as cell growth at 10 uM after 48 hrs by SRB assay relative to control; format: functional; settings: HCT-116, 48 h, read-out: Activity
NCI-H23 = assay: Cytotoxicity against human NCI-H23 cells assessed as cell growth at 10 uM after 48 hrs by SRB assay relative to control; format: functional; settings: NCI-H23, 48 h, read-out: Activity
[15] = Cytotoxicity against human HCT15 cells assessed as cell growth at 10 uM after 48 hrs by SRB assay relative to control; format: functional; settings: HCT-15, 48 h, read-out: Activity

Structure (SMILES) | growth at 10 µM (SK-MEL-28) [%] | growth at 10 µM (LOX IMVI) [%] | growth at 10 µM (CCRF-CEM) [%] | pIC50 (MCF7 [1]) | growth at 10 µM (SF-539) [%] | growth at 10 µM [2] [%] | growth at 10 µM (NCI-H460) [%] | growth at 10 µM (K562) [%] | growth at 10 µM (RPMI-8226) [%] | growth at 10 µM (IGROV-1) [%] | pIC50 (MDA-MB-231 [3]) | growth at 10 µM [4] [%] | pIC50 (MDA-MB-231 [5]) | growth at 10 µM (MDA-MB-468) [%] | growth at 10 µM (786-0) [%] | growth at 10 µM [6] [%] | pIC50 (MDA-MB-231 [7]) | growth at 10 µM [8] [%] | growth at 10 µM (SW-620) [%] | growth at 10 µM (A498) [%] | also measured
CC(C)=CCC[C@H](C)c1ccc(C)c2c1OCN(CCCCCO)C2 | 115 | 77.6 | 96 | 5.16 | 84.5 | 102 | 81.1 | 31.1 | 76.7 | 90.4 | 5.00 | 88.8 | 5.27 | 90 | 69.5 | 87.4 | < 4.70 | 68.6 | 94.9 | 75.3 | growth at 10 µM (SNB-75): 85.6%; growth at 10 µM (MCF7 [9]): 88.7%; growth at 10 µM (ACHN): 94.1%; growth at 10 µM (SNB-19): 88.8%; growth at 10 µM (SK-MEL-5): 91.7%; growth at 10 µM [10]: 82.8%; growth at 10 µM [11]: 57%; growth at 10 µM [12]: 90.1%; growth at 10 µM (SF-295): 110%; growth at 10 µM (KM12): 104%; growth at 10 µM [13]: 78.4%; growth at 10 µM (HL-60(TB)): 51.7%; growth at 10 µM (A549): 82.5%; growth at 10 µM (CAKI-1): 78.1%; growth at 10 µM [14]: 68.6%; growth at 10 µM (NCI-H23): 91.3%; growth at 10 µM [15]: 94%
COc1ccc(CCNCc2c(C)ccc([C@@H](C)CCC=C(C)C)c2O)cc1OC | 104 | 73.7 | 80.1 | < 4.70 | 88.9 | 82.3 | 83.1 | 44.5 | 55.8 | 68.8 | < 4.70 | 94.8 | < 4.30 | 67.9 | 80.4 | 96.6 | < 4.70 | 71 | 84.9 | 53.4 | growth at 10 µM (SNB-75): 66.1%; growth at 10 µM (MCF7 [9]): 85.1%; growth at 10 µM (ACHN): 87.1%; growth at 10 µM (SNB-19): 90.8%; growth at 10 µM (SK-MEL-5): 78%; growth at 10 µM [10]: 84.9%; growth at 10 µM [11]: 42.6%; growth at 10 µM [12]: 80.4%; growth at 10 µM (SF-295): 87.9%; growth at 10 µM (KM12): 89.9%; growth at 10 µM [13]: 78.7%; growth at 10 µM (HL-60(TB)): 85.6%; growth at 10 µM (A549): 85.8%; growth at 10 µM (CAKI-1): 58.4%; growth at 10 µM [14]: 58%; growth at 10 µM (NCI-H23): 74%; growth at 10 µM [15]: 92.2%
